In brackets after ≈: the same amount, converted by molar mass. Activity calls are given as the source filed them. The rule behind the calls is not given here.
Test system: HDFa
Assay: Antiproliferative activity against human HDFa cells assessed as reduction in cell viability measured at 48 hrs by MTT assay
Format: functional, cell-based
Settings: not given

Structure (SMILES)	Activity
CC(=O)c1c(O)c(C)c(O)c2c1OC1=CC(=O)c3c(nn(C)c3C)[C@@]12C	inactive
CC(=O)c1c(O)c(C)c(O)c2c1OC1=Cc3[nH]nc(C)c3C(=O)[C@@]12C	inactive
CC(=O)c1c(O)c(C)c(O)c2c1OC1=CC(=O)c3c(n[nH]c3C)[C@@]12C	inactive

Test system: not listed separately
Assay: Permeability across apical to basolateral side in human Caco-2 cells
Format: ADME, cell-based
Settings: read-out: permeability

Structure (SMILES)	Papp A→B [×10⁻⁶ cm/s]
CC(=O)c1c(O)c(C)c(O)c2c1OC1=Cc3onc(C)c3C(=O)[C@@]12C	2.2
CC(=O)c1c(O)c(C)c(O)c2c1OC1=CC(=O)c3c(n[nH]c3C)[C@@]12C	11.3

Test system: not listed separately
Assay: Aqueous solubility of compound in PBS at pH 7.4
Format: physicochemical
Settings: not given

Structure (SMILES)	solubility [µM]
CC(=O)c1c(O)c(C)c(O)c2c1OC1=Cc3onc(C)c3C(=O)[C@@]12C	0.2 (≈ 0.0683 µg/mL)
CC(=O)c1c(O)c(C)c(O)c2c1OC1=CC(=O)c3c(n[nH]c3C)[C@@]12C	4 (≈ 1.36 µg/mL)

Biological target: CYP2C19 (Homo sapiens, UniProt P33261)
Sequence (P33261 whole entry): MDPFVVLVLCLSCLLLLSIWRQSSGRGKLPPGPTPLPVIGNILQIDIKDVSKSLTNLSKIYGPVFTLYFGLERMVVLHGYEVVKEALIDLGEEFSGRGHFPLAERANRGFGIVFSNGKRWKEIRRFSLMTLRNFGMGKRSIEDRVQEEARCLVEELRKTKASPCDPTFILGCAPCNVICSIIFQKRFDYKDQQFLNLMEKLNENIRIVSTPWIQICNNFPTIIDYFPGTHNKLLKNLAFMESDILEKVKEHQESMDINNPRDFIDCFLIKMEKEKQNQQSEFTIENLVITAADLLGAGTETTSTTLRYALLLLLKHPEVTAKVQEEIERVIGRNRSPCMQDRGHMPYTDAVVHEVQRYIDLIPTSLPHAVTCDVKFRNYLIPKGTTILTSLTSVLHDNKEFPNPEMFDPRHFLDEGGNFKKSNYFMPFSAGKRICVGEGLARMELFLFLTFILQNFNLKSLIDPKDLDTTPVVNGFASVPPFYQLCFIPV
Assay: Inhibition of CYP2C19 in human liver microsomes at 10 uM relative to control
Format: ADME, Microsome
Settings: not given

Structure (SMILES)	inhibition at 10 µM [%]
CC(=O)c1c(O)c(C)c(O)c2c1OC1=Cc3onc(C)c3C(=O)[C@@]12C	15.6
CC(=O)c1c(O)c(C)c(O)c2c1OC1=CC(=O)c3c(n[nH]c3C)[C@@]12C	65.9

Biological target: Cytochrome P450 2C9 (Homo sapiens, UniProt P11712)
Sequence (P11712 whole entry): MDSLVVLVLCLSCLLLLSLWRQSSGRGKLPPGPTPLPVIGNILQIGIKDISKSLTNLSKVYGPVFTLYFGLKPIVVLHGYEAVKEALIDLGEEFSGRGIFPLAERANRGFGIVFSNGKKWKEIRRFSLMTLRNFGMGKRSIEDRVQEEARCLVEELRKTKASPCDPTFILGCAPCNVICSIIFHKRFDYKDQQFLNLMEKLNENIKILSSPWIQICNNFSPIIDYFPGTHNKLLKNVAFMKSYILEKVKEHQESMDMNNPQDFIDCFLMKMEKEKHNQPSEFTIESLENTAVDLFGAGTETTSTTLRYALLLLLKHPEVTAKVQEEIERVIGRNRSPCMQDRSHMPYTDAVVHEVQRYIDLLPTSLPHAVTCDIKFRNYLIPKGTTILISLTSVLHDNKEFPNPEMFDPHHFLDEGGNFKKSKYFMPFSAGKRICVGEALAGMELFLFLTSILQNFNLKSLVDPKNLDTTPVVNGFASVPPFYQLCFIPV
Assay: Inhibition of CYP2C9 in human liver microsomes
Format: ADME, Microsome
Settings: not given

Structure (SMILES)	IC50 [µM]
CC(=O)c1c(O)c(C)c(O)c2c1OC1=CC(=O)c3c(n[nH]c3C)[C@@]12C	0.094

Test system: not listed separately
Assay: Lipophilicity, logD of the compound
Format: physicochemical
Settings: octanol/water

Structure (SMILES)	logD
CC(=O)c1c(O)c(C)c(O)c2c1OC1=Cc3onc(C)c3C(=O)[C@@]12C	3.32
CC(=O)c1c(O)c(C)c(O)c2c1OC1=CC(=O)c3c(n[nH]c3C)[C@@]12C	> 3.68

Biological target: Cytochrome P450 2C19 (Homo sapiens, UniProt P33261)
Sequence (P33261 whole entry): as the sequence (P33261 whole entry) above
Assay: Inhibition of CYP2C19 in human liver microsomes
Format: ADME, Microsome
Settings: not given

Structure (SMILES)	IC50 [µM]
CC(=O)c1c(O)c(C)c(O)c2c1OC1=CC(=O)c3c(n[nH]c3C)[C@@]12C	0.009

Biological target: CYP3A (Homo sapiens, UniProt P08684+P20815+P24462+Q9HB55)
Assay: Inhibition of CYP3A in human liver microsomes at 10 uM relative to control
Format: ADME, Microsome
Settings: not given

Structure (SMILES)	inhibition at 10 µM [%]
CC(=O)c1c(O)c(C)c(O)c2c1OC1=Cc3onc(C)c3C(=O)[C@@]12C	14.7
CC(=O)c1c(O)c(C)c(O)c2c1OC1=CC(=O)c3c(n[nH]c3C)[C@@]12C	51.3

Test system: HeLa
Assay: Antiproliferative activity against human HeLa cells assessed as reduction in cell viability measured at 48 hrs by MTT assay
Format: functional, cell-based
Settings: not given

Structure (SMILES)	IC50 [µM]
CC(=O)c1c(O)c(C)c(O)c2c1OC1=CC(=O)c3c(nn(C)c3C)[C@@]12C	0.116
CC(=O)c1c(O)c(C)c(O)c2c1OC1=Cc3c(c(C)nn3-c3ccccn3)C(=O)[C@@]12C	> 15
CC(C)=N/N=C(\C)c1c(O)c(C)c(O)c2c1OC1=CC(=O)c3c(n[nH]c3C)[C@@]12C	8.65
CC(=O)c1c(O)c(C)c(O)c2c1OC1=CC(O)=C(/C(C)=N/N)C(=O)[C@@]12C	> 15
CC(=O)C1=C(O)C=C2Oc3c(C(C)=O)c(O)c(C)c(O)c3[C@@]2(C)C1=O [(+)-USNIC ACID]	> 15
CC(=O)c1c(O)c(C)c(O)c2c1OC1=CC(O)=C(/C(C)=N/N(C)C)C(=O)[C@@]12C	> 15
CC(=O)c1c(O)c(C)c(O)c2c1OC1=Cc3c(c(C)nn3C)C(=O)[C@@]12C	3.91
COc1cccc2c1C(=O)c1c(O)c3c(c(O)c1C2=O)C[C@@](O)(C(=O)CO)C[C@@H]3O[C@H]1C[C@H](N)[C@H](O)[C@H](C)O1 [DOXORUBICIN]	0.429
CC(=O)c1c(O)c(C)c(O)c2c1OC1=Cc3c(c(C)nn3C(C)(C)C)C(=O)[C@@]12C	> 15
CC(=O)c1c(O)c(C)c(O)c2c1OC1=Cc3[nH]nc(C)c3C(=O)[C@@]12C	0.311
CC(=O)c1c(O)c(C)c(O)c2c1O[C@@H]1Cc3n[nH]c(C)c3C(=O)[C@]21C	> 15
CC(=O)c1c(O)c(C)c(O)c2c1O[C@@H]1Cc3n[nH]c(C)c3[C@H](O)[C@]21C	> 15
CC(=O)c1c(O)c(C)c(O)c2c1OC1=Cc3c(c(C)nn3CCBr)C(=O)[C@@]12C	> 15
CC(=O)c1c(O)c(C)c(O)c2c1OC1=Cc3onc(C)c3C(=O)[C@@]12C	2.21
CCn1nc(C)c2c1C=C1Oc3c(C(C)=O)c(O)c(C)c(O)c3[C@@]1(C)C2=O	11
CC(=O)c1c(O)c(C)c(O)c2c1OC1=CC(=O)c3c(C)nn(C)c3[C@@]12C	> 15
CC(=O)c1c(O)c(C)c(O)c2c1OC1=CC(=O)c3c(C)noc3[C@@]12C	> 15
CC(=O)c1c(O)c(C)c(O)c2c1OC1=Cc3c(c(C)nn3CCO)C(=O)[C@@]12C	> 15
CC(=O)c1c(O)c(C)c(O)c2c1OC1=CC(=O)c3c(n[nH]c3C)[C@@]12C	0.878

Biological target: T1, Cytochrome P450 2C8 (Homo sapiens, UniProt P10632)
T1 sequence (P10632 whole entry): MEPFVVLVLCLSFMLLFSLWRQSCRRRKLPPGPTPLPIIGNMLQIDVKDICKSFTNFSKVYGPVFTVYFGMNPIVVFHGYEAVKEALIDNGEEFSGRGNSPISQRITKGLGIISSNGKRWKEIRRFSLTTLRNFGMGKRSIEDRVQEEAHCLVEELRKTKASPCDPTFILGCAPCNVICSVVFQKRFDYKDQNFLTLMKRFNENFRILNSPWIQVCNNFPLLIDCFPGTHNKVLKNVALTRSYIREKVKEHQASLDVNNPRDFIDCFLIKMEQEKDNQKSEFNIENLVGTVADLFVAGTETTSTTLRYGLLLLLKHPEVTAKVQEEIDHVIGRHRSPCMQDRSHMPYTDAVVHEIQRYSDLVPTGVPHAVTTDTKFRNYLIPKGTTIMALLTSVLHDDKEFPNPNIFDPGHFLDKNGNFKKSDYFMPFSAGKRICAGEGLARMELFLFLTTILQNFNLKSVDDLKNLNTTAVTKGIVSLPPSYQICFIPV
Assay: Inhibition of CYP2C8 in human liver microsomes
Format: ADME, Microsome
Settings: not given

Structure (SMILES)	IC50 [µM]
CC(=O)c1c(O)c(C)c(O)c2c1OC1=CC(=O)c3c(n[nH]c3C)[C@@]12C	1.9

Test system: not listed separately
Assay: Half life in human liver microsomes
Format: ADME, Microsome
Settings: not given

Structure (SMILES)	half-life [h]
CC(=O)C1=C(O)C=C2Oc3c(C(C)=O)c(O)c(C)c(O)c3[C@@]2(C)C1=O [(+)-USNIC ACID]	1.32
CC(=O)c1c(O)c(C)c(O)c2c1OC1=Cc3onc(C)c3C(=O)[C@@]12C	0.383
CC(=O)c1c(O)c(C)c(O)c2c1OC1=CC(=O)c3c(n[nH]c3C)[C@@]12C	> 1

Test system: not listed separately
Assay: Drug recovery in human plasma relative to control
Format: ADME, cell-free
Settings: not given

Structure (SMILES)	Drug recovery [%]
CC(=O)C1=C(O)C=C2Oc3c(C(C)=O)c(O)c(C)c(O)c3[C@@]2(C)C1=O [(+)-USNIC ACID]	95
CC(=O)c1c(O)c(C)c(O)c2c1OC1=Cc3onc(C)c3C(=O)[C@@]12C	19
CC(=O)c1c(O)c(C)c(O)c2c1OC1=CC(=O)c3c(n[nH]c3C)[C@@]12C	19

Test system: not listed separately
Assay: Plasma protein binding in human relative to control
Format: ADME, cell-free
Settings: read-out: PPB (converted)

Structure (SMILES)	fraction unbound
CC(=O)C1=C(O)C=C2Oc3c(C(C)=O)c(O)c(C)c(O)c3[C@@]2(C)C1=O [(+)-USNIC ACID]	0.0024
CC(=O)c1c(O)c(C)c(O)c2c1OC1=Cc3onc(C)c3C(=O)[C@@]12C	0.06
CC(=O)c1c(O)c(C)c(O)c2c1OC1=CC(=O)c3c(n[nH]c3C)[C@@]12C	0.04

Test system: not listed separately
Assay: Aqueous solubility of the compound in simulated gastric fluid
Format: ADME
Settings: not given

Structure (SMILES)	solubility [µM]
CC(=O)c1c(O)c(C)c(O)c2c1OC1=Cc3onc(C)c3C(=O)[C@@]12C	37.6 (≈ 12.8 µg/mL)
CC(=O)c1c(O)c(C)c(O)c2c1OC1=CC(=O)c3c(n[nH]c3C)[C@@]12C	> 200

Test system: HeLa
Assay: Antiproliferative activity against human HeLa cells assessed as reduction in cell viability measured at 24 hrs by MTT assay
Format: functional, cell-based
Settings: not given

Structure (SMILES)	IC50 [µM]
CC(=O)c1c(O)c(C)c(O)c2c1OC1=CC(=O)c3c(nn(C)c3C)[C@@]12C	0.928
CC(=O)c1c(O)c(C)c(O)c2c1OC1=Cc3c(c(C)nn3-c3ccccn3)C(=O)[C@@]12C	> 15
CC(C)=N/N=C(\C)c1c(O)c(C)c(O)c2c1OC1=CC(=O)c3c(n[nH]c3C)[C@@]12C	> 15
CC(=O)c1c(O)c(C)c(O)c2c1OC1=CC(O)=C(/C(C)=N/N)C(=O)[C@@]12C	> 15
CC(=O)C1=C(O)C=C2Oc3c(C(C)=O)c(O)c(C)c(O)c3[C@@]2(C)C1=O [(+)-USNIC ACID]	> 15
CC(=O)c1c(O)c(C)c(O)c2c1OC1=CC(O)=C(/C(C)=N/N(C)C)C(=O)[C@@]12C	> 15
CC(=O)c1c(O)c(C)c(O)c2c1OC1=Cc3c(c(C)nn3C)C(=O)[C@@]12C	> 15
COc1cccc2c1C(=O)c1c(O)c3c(c(O)c1C2=O)C[C@@](O)(C(=O)CO)C[C@@H]3O[C@H]1C[C@H](N)[C@H](O)[C@H](C)O1 [DOXORUBICIN]	3.33
CC(=O)c1c(O)c(C)c(O)c2c1OC1=Cc3c(c(C)nn3C(C)(C)C)C(=O)[C@@]12C	> 15
CC(=O)c1c(O)c(C)c(O)c2c1OC1=Cc3[nH]nc(C)c3C(=O)[C@@]12C	1.36
CC(=O)c1c(O)c(C)c(O)c2c1O[C@@H]1Cc3n[nH]c(C)c3C(=O)[C@]21C	> 15
CC(=O)c1c(O)c(C)c(O)c2c1O[C@@H]1Cc3n[nH]c(C)c3[C@H](O)[C@]21C	> 15
CC(=O)c1c(O)c(C)c(O)c2c1OC1=Cc3c(c(C)nn3CCBr)C(=O)[C@@]12C	> 15
CC(=O)c1c(O)c(C)c(O)c2c1OC1=Cc3onc(C)c3C(=O)[C@@]12C	7.15
CCn1nc(C)c2c1C=C1Oc3c(C(C)=O)c(O)c(C)c(O)c3[C@@]1(C)C2=O	> 15
CC(=O)c1c(O)c(C)c(O)c2c1OC1=CC(=O)c3c(C)nn(C)c3[C@@]12C	> 15
CC(=O)c1c(O)c(C)c(O)c2c1OC1=CC(=O)c3c(C)noc3[C@@]12C	> 15
CC(=O)c1c(O)c(C)c(O)c2c1OC1=Cc3c(c(C)nn3CCO)C(=O)[C@@]12C	> 15
CC(=O)c1c(O)c(C)c(O)c2c1OC1=CC(=O)c3c(n[nH]c3C)[C@@]12C	1.92

Test system: not listed separately
Assay: Toxicity in nude mouse xenografted with human MCF7 cells assessed as side effects at 400 mg/kg, po
Format: organism-based
Settings: in vivo

Structure (SMILES)	Activity
CC(=O)c1c(O)c(C)c(O)c2c1OC1=Cc3onc(C)c3C(=O)[C@@]12C	Non-Toxic

Biological target: T2, CYP2C8 (Homo sapiens, UniProt P10632)
T2 sequence (P10632 whole entry): T1 sequence (P10632 whole entry)
Assay: Inhibition of CYP2C8 in human liver microsomes at 10 uM relative to control
Format: ADME, Microsome
Settings: not given

Structure (SMILES)	inhibition at 10 µM [%]
CC(=O)c1c(O)c(C)c(O)c2c1OC1=Cc3onc(C)c3C(=O)[C@@]12C	8.5
CC(=O)c1c(O)c(C)c(O)c2c1OC1=CC(=O)c3c(n[nH]c3C)[C@@]12C	52.6

Test system: not listed separately
Assay: Aqueous solubility of the compound in simulated intestinal fluid
Format: ADME
Settings: not given

Structure (SMILES)	solubility [µM]
CC(=O)c1c(O)c(C)c(O)c2c1OC1=Cc3onc(C)c3C(=O)[C@@]12C	1.6 (≈ 0.546 µg/mL)
CC(=O)c1c(O)c(C)c(O)c2c1OC1=CC(=O)c3c(n[nH]c3C)[C@@]12C	11.5 (≈ 3.91 µg/mL)

Test system: not listed separately
Assay: Permeability across basolateral to apical side in human Caco-2 cells
Format: ADME, cell-based
Settings: read-out: permeability

Structure (SMILES)	Papp B→A [×10⁻⁶ cm/s]
CC(=O)c1c(O)c(C)c(O)c2c1OC1=Cc3onc(C)c3C(=O)[C@@]12C	0.2
CC(=O)c1c(O)c(C)c(O)c2c1OC1=CC(=O)c3c(n[nH]c3C)[C@@]12C	1.6

Biological target: CYP2C9 (Homo sapiens, UniProt P11712)
Sequence (P11712 whole entry): as the sequence (P11712 whole entry) above
Assay: Inhibition of CYP2C9 in human liver microsomes at 10 uM relative to control
Format: ADME, Microsome
Settings: not given

Structure (SMILES)	inhibition at 10 µM [%]
CC(=O)c1c(O)c(C)c(O)c2c1OC1=CC(=O)c3c(n[nH]c3C)[C@@]12C	74.6
